Consider one compound from paper PMC10755728, “Inhibitors of the Elastase LasB for the Treatment of Pseudomonas aeruginosa Lung Infections” (ACS Central Science, 2023).

Data set [1] in a line: Plasma stability, mouse. It is filed as in vitro ADME.
For data set [2], the target named is T1, MMP-2 (Homo sapiens, UniProt P08253).
T1 construct: purchased AnaSpec (Fremont, CA, USA)
T1 sequence (P08253 110-660): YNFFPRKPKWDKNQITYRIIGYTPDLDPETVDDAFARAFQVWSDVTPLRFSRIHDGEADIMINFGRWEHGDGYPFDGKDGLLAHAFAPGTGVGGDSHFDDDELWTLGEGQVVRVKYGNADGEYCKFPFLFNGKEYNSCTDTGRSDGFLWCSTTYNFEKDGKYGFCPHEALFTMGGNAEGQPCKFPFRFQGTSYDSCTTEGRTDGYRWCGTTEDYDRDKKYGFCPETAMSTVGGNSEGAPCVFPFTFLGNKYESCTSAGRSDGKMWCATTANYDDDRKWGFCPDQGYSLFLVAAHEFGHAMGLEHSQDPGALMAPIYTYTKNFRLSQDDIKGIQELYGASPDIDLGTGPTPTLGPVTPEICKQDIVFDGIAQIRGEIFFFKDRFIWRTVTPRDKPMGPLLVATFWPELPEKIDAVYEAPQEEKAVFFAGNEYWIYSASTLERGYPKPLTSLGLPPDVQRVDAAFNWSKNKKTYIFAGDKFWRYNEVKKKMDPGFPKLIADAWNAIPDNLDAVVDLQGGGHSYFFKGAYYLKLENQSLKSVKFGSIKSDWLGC
The experiment in a line: MMP-2 inhibition assay. The format is biochemical. As to conditions: read-out: % inhibition MMP-2.

Data set [3] in a line: Plasma stability, rat. It is filed as in vitro ADME. Particulars: Wistar, pooled plasma, species profiling, read-out: Plasma T1/2 Rat (Wistar).
Data set [4] has as its system LasB. The format is in vivo, mouse. Particulars: compared to the vehicle group; 4b 10 mg/kg TID, levofloxacin 25 mg/kg.

Bounds are passed on as bounds.

In the case of `CC(C)CC(C(=O)Nc1ccc(C(F)(F)F)cc1)P(=O)(O)O` (centres unmarked) [Compound 4b], the half-life in data set [1] (C57BL6, mouse, pooled plasma, species profiling, read-out: Plasma T1/2 Mouse (C57BL6)) was above 4 h; in data set [3], above 4 h. Moreover, the half-life at 1 μM in data set [1] (mouse plasma, read-out: Plasma T1/2 Mouse) is above 2.5 h. For the same compound, the inhibition at 100 µM in data set [2] was found to be 25 ± 4%. The “LasB protein levels in blood” value in data set [4] is reported as “strong reduction”.

Usually inhibition stands for the change of the read-out against control, counted positive when it falls.
